Laboratory results as given in PubChem BioAssay (NCI).
Where “and” joins values, the source holds several entries; their conditions need not be identical. Equal entries are not always repeated.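 Results reflect a 48-hour exposure of cells in 96-well plates to compound at five concentrations. Abbreviation: GI50, concentration required for 50% inhibition of growth. At the TGI there is no net growth.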

Legend:
Assay in all cases: NCI anticancer screen, dose series, 48 h
CCRF-CEM leukemia = tested on: CCRF-CEM leukemia
A549 NSCLC = tested on: A549 NSCLC
BT-549 breast = tested on: BT-549 breast
NCI-H460 lung = tested on: NCI-H460 lung
NCI-H522 lung = tested on: NCI-H522 lung
MCF7 breast = tested on: MCF7 breast
HL-60(TB) leukemia = tested on: HL-60(TB) leukemia
OVCAR-5 ovarian = tested on: OVCAR-5 ovarian
COLO 205 colon = tested on: COLO 205 colon
OVCAR-8 ovarian = tested on: OVCAR-8 ovarian
KM12 colon = tested on: KM12 colon
NCI-H23 lung = tested on: NCI-H23 lung
OVCAR-3 ovarian = tested on: OVCAR-3 ovarian
SK-OV-3 ovarian = tested on: SK-OV-3 ovarian
PC-3 prostate = tested on: PC-3 prostate
SR leukemia = tested on: SR leukemia
HCT-116 colon = tested on: HCT-116 colon
HT29 colon = tested on: HT29 colon
NCI-H226 lung = tested on: NCI-H226 lung
SW-620 colon = tested on: SW-620 colon
A498 renal = tested on: A498 renal
SF-295 CNS = tested on: SF-295 CNS
OVCAR-4 ovarian = tested on: OVCAR-4 ovarian
RPMI-8226 leukemia = tested on: RPMI-8226 leukemia
SK-MEL-28 melanoma = tested on: SK-MEL-28 melanoma
SK-MEL-2 melanoma = tested on: SK-MEL-2 melanoma
LOX IMVI melanoma = tested on: LOX IMVI melanoma
K-562 leukemia = tested on: K-562 leukemia
T-47D breast = tested on: T-47D breast
SNB-19 CNS = tested on: SNB-19 CNS
DU-145 prostate = tested on: DU-145 prostate
M14 melanoma = tested on: M14 melanoma
TK-10 renal = tested on: TK-10 renal
HCC-2998 colon = tested on: HCC-2998 colon
MDA-MB-231 breast = tested on: MDA-MB-231 breast
NCI/ADR-RES ovarian = tested on: NCI/ADR-RES ovarian
MALME-3M melanoma = tested on: MALME-3M melanoma
EKVX NSCLC = tested on: EKVX NSCLC
SK-MEL-5 melanoma = tested on: SK-MEL-5 melanoma
CAKI-1 renal = tested on: CAKI-1 renal
MDA-MB-435 = tested on: MDA-MB-435
SF-268 CNS = tested on: SF-268 CNS
SNB-75 CNS = tested on: SNB-75 CNS
HOP-62 NSCLC = tested on: HOP-62 NSCLC
SN12C renal = tested on: SN12C renal
HCT-15 colon = tested on: HCT-15 colon
MOLT-4 leukemia = tested on: MOLT-4 leukemia
ACHN renal = tested on: ACHN renal
HS 578T breast = tested on: HS 578T breast
UACC-257 melanoma = tested on: UACC-257 melanoma
UO-31 renal = tested on: UO-31 renal
786-0 renal = tested on: 786-0 renal
HOP-92 NSCLC = tested on: HOP-92 NSCLC
SF-539 CNS = tested on: SF-539 CNS
UACC-62 melanoma = tested on: UACC-62 melanoma
RXF 393 renal = tested on: RXF 393 renal
IGROV1 ovarian = tested on: IGROV1 ovarian
U251 CNS = tested on: U251 CNS

CCc1cnn2c(NCc3ccc[n+]([O-])c3)cc(N3CCCC[C@H]3CCO)nc12
GI50 (CCRF-CEM leukemia): < 0.01 µM and 0.00331 µM
GI50 (A549 NSCLC): < 0.0163 µM and 0.00853 µM
TGI (A549 NSCLC): > 10 µM
GI50 (BT-549 breast): < 0.01 µM and 0.00331 µM
TGI (BT-549 breast): < 0.0183 µM and 0.0305 µM
GI50 (NCI-H460 lung): < 0.01 µM and 0.00464 µM
TGI (NCI-H460 lung): > 44.8 µM
GI50 (NCI-H522 lung): < 0.01 µM and 0.00219 µM
TGI (NCI-H522 lung): < 0.01 µM and 0.00549 µM
GI50 (MCF7 breast): < 0.01 µM and 0.00221 µM
TGI (MCF7 breast): > 100 µM
GI50 (HL-60(TB) leukemia): < 0.01 µM and 0.00319 µM
TGI (HL-60(TB) leukemia): < 0.01 µM and 0.0112 µM
GI50 (OVCAR-5 ovarian): < 0.01 µM and 0.00492 µM
TGI (OVCAR-5 ovarian): > 35.7 µM
GI50 (COLO 205 colon): < 0.01 µM and 0.00235 µM
TGI (COLO 205 colon): < 0.01 µM and 0.00586 µM
GI50 (OVCAR-8 ovarian): < 0.01 µM and 0.00446 µM
TGI (OVCAR-8 ovarian): > 100 µM
GI50 (KM12 colon): < 0.01 µM and 0.0034 µM
TGI (KM12 colon): > 10 µM
GI50 (NCI-H23 lung): < 0.01 µM and 0.00416 µM
TGI (NCI-H23 lung): 0.0174 µM and 0.0214 µM
GI50 (OVCAR-3 ovarian): 0.00327 µM
TGI (OVCAR-3 ovarian): > 10 µM
GI50 (SK-OV-3 ovarian): 0.0391 µM and 0.0338 µM
TGI (SK-OV-3 ovarian): > 100 µM
GI50 (PC-3 prostate): < 0.0132 µM and 0.00762 µM
TGI (PC-3 prostate): 0.0792 µM and 0.111 µM
GI50 (SR leukemia): < 0.01 µM and 0.0016 µM
TGI (SR leukemia): < 0.01 µM
GI50 (HCT-116 colon): < 0.01 µM and 0.00345 µM
TGI (HCT-116 colon): > 100 µM
GI50 (HT29 colon): < 0.01 µM and 0.00441 µM
GI50 (NCI-H226 lung): < 0.0129 µM and 0.00689 µM
TGI (NCI-H226 lung): 0.0395 µM
GI50 (SW-620 colon): < 0.01 µM and 0.00322 µM
TGI (SW-620 colon): > 100 µM
GI50 (A498 renal): 0.0029 µM
TGI (A498 renal): 0.00904 µM
GI50 (SF-295 CNS): < 0.0129 µM and 0.00732 µM
TGI (SF-295 CNS): 0.0962 µM and 0.0602 µM
GI50 (OVCAR-4 ovarian): < 0.0105 µM and 0.00798 µM
GI50 (RPMI-8226 leukemia): < 0.01 µM and 0.00668 µM
TGI (RPMI-8226 leukemia): 0.0244 µM and 0.0436 µM
GI50 (SK-MEL-28 melanoma): < 0.01 µM and 0.00493 µM
TGI (SK-MEL-28 melanoma): 0.0297 µM and 0.0713 µM
GI50 (SK-MEL-2 melanoma): < 0.01 µM and 0.00315 µM
TGI (SK-MEL-2 melanoma): 0.0237 µM and 0.0107 µM
GI50 (LOX IMVI melanoma): < 0.01 µM and 0.00276 µM
TGI (LOX IMVI melanoma): > 100 µM
GI50 (K-562 leukemia): 0.0155 µM and 0.00449 µM
TGI (K-562 leukemia): > 100 µM
GI50 (T-47D breast): < 0.01 µM and 0.00485 µM
TGI (T-47D breast): 0.0777 µM
GI50 (SNB-19 CNS): < 0.0107 µM and 0.00366 µM
TGI (SNB-19 CNS): > 100 µM
GI50 (DU-145 prostate): < 0.0127 µM and 0.00728 µM
TGI (DU-145 prostate): > 10 µM
GI50 (M14 melanoma): < 0.01 µM and 0.00438 µM
TGI (M14 melanoma): 0.0235 µM and 0.0351 µM
GI50 (TK-10 renal): < 0.0156 µM and 0.00916 µM
TGI (TK-10 renal): 1.95 µM and > 2.07 µM
GI50 (HCC-2998 colon): < 0.01 µM and 0.0045 µM
TGI (HCC-2998 colon): 0.0492 µM and 0.0347 µM
GI50 (MDA-MB-231 breast): < 0.01 µM and 0.0042 µM
TGI (MDA-MB-231 breast): > 100 µM
GI50 (NCI/ADR-RES ovarian): 0.162 µM and 0.146 µM
TGI (NCI/ADR-RES ovarian): 2.53 µM and > 6.61 µM
GI50 (MALME-3M melanoma): < 0.0126 µM and 0.00754 µM
TGI (MALME-3M melanoma): 0.0272 µM and 0.0324 µM
GI50 (EKVX NSCLC): < 0.01 µM and 0.00902 µM
TGI (EKVX NSCLC): 0.138 µM and 0.0524 µM
GI50 (SK-MEL-5 melanoma): < 0.01 µM and 0.00469 µM
TGI (SK-MEL-5 melanoma): 0.0237 µM and 0.207 µM
GI50 (CAKI-1 renal): 0.0491 µM and 0.00911 µM
TGI (CAKI-1 renal): > 63.4 µM
GI50 (MDA-MB-435): < 0.01 µM and 0.00331 µM
GI50 (SF-268 CNS): < 0.01 µM and 0.00348 µM
TGI (SF-268 CNS): 0.0576 µM and 0.373 µM
GI50 (SNB-75 CNS): < 0.01 µM and 0.00174 µM
TGI (SNB-75 CNS): < 0.0145 µM and 0.00437 µM
GI50 (HOP-62 NSCLC): < 0.01 µM and 0.00415 µM
TGI (HOP-62 NSCLC): 0.0351 µM
GI50 (SN12C renal): < 0.01 µM and 0.00406 µM
TGI (SN12C renal): > 100 µM
GI50 (HCT-15 colon): 0.0351 µM and 0.0253 µM
TGI (HCT-15 colon): > 35 µM
GI50 (MOLT-4 leukemia): < 0.01 µM and 0.00393 µM
TGI (MOLT-4 leukemia): < 0.0136 µM
GI50 (ACHN renal): < 0.0155 µM and 0.0132 µM
TGI (ACHN renal): > 10 µM
GI50 (HS 578T breast): < 0.01 µM and 0.00236 µM
TGI (HS 578T breast): 0.00805 µM
GI50 (UACC-257 melanoma): < 0.0135 µM and 0.0074 µM
GI50 (UO-31 renal): 0.0201 µM and 0.0228 µM
TGI (UO-31 renal): 0.0692 µM
GI50 (786-0 renal): 0.0101 µM and 0.00494 µM
TGI (786-0 renal): > 100 µM
GI50 (HOP-92 NSCLC): < 0.0142 µM and 0.00299 µM
TGI (HOP-92 NSCLC): < 0.0269 µM and 0.0145 µM
GI50 (SF-539 CNS): < 0.01 µM and 0.00228 µM
TGI (SF-539 CNS): < 0.0116 µM and 0.00756 µM
GI50 (UACC-62 melanoma): < 0.01 µM and 0.00345 µM
TGI (UACC-62 melanoma): 0.0307 µM and 0.0168 µM
GI50 (RXF 393 renal): < 0.01 µM and 0.00188 µM
TGI (RXF 393 renal): < 0.01 µM and 0.00446 µM
GI50 (IGROV1 ovarian): < 0.01 µM and 0.0033 µM
TGI (IGROV1 ovarian): > 10 µM
GI50 (U251 CNS): < 0.01 µM and 0.00368 µM
TGI (U251 CNS): > 100 µM
